We go through one substance from patent US10617641B2, “Composition for preventing or treating ischemic diseases, containing liposomes in which VEGF-derived peptides are supported” (INDUSTRIAL COOPERATION FOUNDATION CHONBUK NATIONAL …, priority 2015, dated 2020).

This experiment concerns myocardial infarction-induced rats. The experiment can be described thus: Relative perfusion of the heart (99mTc-tetrofosmin autoradiography) in myocardial infarction model rats. In kind it is in vivo, Sprague-Dawley rats. As to conditions: 200 μL through an apical puncture, after one week. The method, then:
First, 8-week-old Sprague-Dawley rats were purchased from Orientbio Inc., and acclimated for 3 days under conditions such as a temperature of 22±3° C., a relative humidity of 60±20%, an air ventilation cycle of 10 to 20 times/hour, a 12-hour light/dark cycle (light on 08:00 A.M. and light off 08:00 P.M.), sterile feed, and water supplies. […] After a week, ^99mtechnetium (Tc)-tetrofosmin was used as a myocardial perfusion imaging agent to obtain an autoradiographic images of rat hearts, and the relative perfusion was measured using a method represented by the following Equation 1 to evaluate an therapeutic effect of the VEGF-derived peptide. Relative perfusion (%)={(Activity value of ^99mTc-tetrofosmin in cardiac ischemic area)/Activity value of ^99mTc-tetrofosmin in septum)}×100 [Equation 1]
All the subsequent statistical analyses were performed using SAS ver. 9.2 (SAS Institute, Cary, US), the significance of difference was determined using a Duncan's multiple range test (MRT) and ANOVA, and a significant difference at p<0.05 was evaluated. All data was assumed to be significant within a range of 5%, and represented by an average±standard deviation (SD).

On to “Ac-MRIKPHQGQHI-NH2 [VEGF-derived peptide]”, for which the “perfusion-improving effect (relative perfusion) compared to the control (PBS)” value is recorded as “significant results were not observed”.
